We go through three compounds from paper PMC10688702, “The indole motif is essential for the antitrypanosomal activity of N^5-substituted paullones” (PLOS ONE, 2023).

Molecules are shown by their SMILES. In brackets after ≈: the same amount, converted by molar mass. Bounds are passed on as bounds.

Broadly, the solubility (thermodynamic) is the concentration in solution at equilibrium with solid. The term viability denotes a read-out of living cells in per cent, often relative to untreated cells.

Data set [1] in a line: Thermodynamic aqueous solubility, shake-flask method and HPLC-UV. Type of data set: physicochemical. Particulars: phosphate-buffered saline, aqueous buffer, thermodynamic from solid, PBS pH 7.4, 25°C, up to 72 h, HPLC-UV, logS of molar solubility [M]. As for the experimental part:
Phosphate-buffered saline pH 7.4 was prepared according to the European Pharmacopeia 10.4 by dissolving 2.38 g sodium monohydrogen phosphate dodecahydrate, 0.19 g potassium dihydrogen phosphate and 8.0 g sodium chloride in demineralised water (to a total volume of 1000 mL). The pH was adjusted to a value of 7.4 with hydrochloric acid. The buffer was filtered through a 0.45 μm membrane filter (Chromafil® Xtra PES-45/25) before use.
The thermodynamic aqueous solubility was determined by a miniaturised shake-flask method. […] A negative control with the buffer (400 μL) was incubated for every time point and measured likewise. After incubation for 24 h, 48 h and 72 h, the vials were checked for undissolved compound; then the filter plunger was punched into the vial for filtration. […] The calibration curve was obtained from at least three dilutions and five measuring points from a DMSO stock solution of the respective compound.

The test system of data set [2] is L. infantum amastigotes (intracellular, in J774.A1 macrophages). Kind of data set: Viability assay for L. infantum amastigotes. In kind it is cell-based. Particulars: Leishmania infantum, J774.A1, 24 h, read-out: L. infantum amastigote viability [% at 20 μM]. The gist of the method:
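Luciferase-expressing L. infantum metacyclic promastigotes (MHOM/MA/67/ITMAP263) infected J774.A1 murine macrophages at 1:10 for 24 h at 37 °C, 5% CO2. After compound treatment, a further 24 h incubation followed. Percent amastigote viability, in triplicate, was normalised to host-cell density by a propidium iodide correction factor.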

`CNCCNC(=O)CN1C(=O)Cc2c([nH]c3ccc(I)cc23)-c2ccc(Cl)cc21` [1f, 2-(3-Chloro-9-iodo-6-oxo-7,12-dihydrobenzo[2,3]azepino[4,5-b]indol-5(6H)-yl)-N-[2-(methylamino)ethyl]acetamide]: in data set [1], the thermodynamic solubility at 72 h is 1.7e-06 M (≈ 0.888 µg/mL). For the same compound, the viability at 20 µM in data set [2] was 72 ± 5%.
As for `CNCCNC(=O)CN1C(=O)Cc2c([nH]c3ccc(C(F)(F)F)cc23)-c2ccc(Cl)cc21` [1h, 2-(3-Chloro-6-oxo-9-trifluoromethyl-7,12-dihydrobenzo[2,3]azepino[4,5-b]indol-5(6H)-yl)-N-[2-(methylamino)ethyl]acetamide], in data set [1], the solubility (thermodynamic) at 72 h was under 2.95e-07 M. In data set [2], the viability at 20 µM was 93 ± 10%.
In turn, `CNCCNC(=O)CN1C(=O)Cc2c([nH]c3ccc(Cl)cc23)-c2ccc(Cl)cc21` [1g, 2-(3,9-Dichloro-6-oxo-7,12-dihydrobenzo[2,3]azepino[4,5-b]indol-5(6H)-yl)-N-[2-(methylamino)ethyl]acetamide] gave a thermodynamic solubility at 72 h in data set [1] of 1.29e-05 M (≈ 5.56 µg/mL). Besides, the viability at 20 µM in data set [2] turned out to be 70 ± 2%.
